Measurements: patent publication US10166216B2 (Rigel Pharmaceuticals, Inc., priority 2006, dated 2019)

molecular target: Axl (Homo sapiens (Human), UniProt P30530); experiment: Phospho-Akt in-cell Western assay (Axl-antibody cross-linking stimulation); format: cell-based; conditions: inhibition of Axl activity, Hela cells, phospho-Akt readout; Table 5, formula (Ia3)
In short: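 HeLa cells on poly-L-lysine, starved 24 hrs with Axl/Fc, pre-treated with compound 1 hr at 37° C., then stimulated 5 min with Axl primary/secondary antibody cluster. Fixed cells probed for phospho-Akt by chemiluminescent in-cell Western; signal normalized to crystal violet cell number.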

Sequence of Axl (P30530 26-894): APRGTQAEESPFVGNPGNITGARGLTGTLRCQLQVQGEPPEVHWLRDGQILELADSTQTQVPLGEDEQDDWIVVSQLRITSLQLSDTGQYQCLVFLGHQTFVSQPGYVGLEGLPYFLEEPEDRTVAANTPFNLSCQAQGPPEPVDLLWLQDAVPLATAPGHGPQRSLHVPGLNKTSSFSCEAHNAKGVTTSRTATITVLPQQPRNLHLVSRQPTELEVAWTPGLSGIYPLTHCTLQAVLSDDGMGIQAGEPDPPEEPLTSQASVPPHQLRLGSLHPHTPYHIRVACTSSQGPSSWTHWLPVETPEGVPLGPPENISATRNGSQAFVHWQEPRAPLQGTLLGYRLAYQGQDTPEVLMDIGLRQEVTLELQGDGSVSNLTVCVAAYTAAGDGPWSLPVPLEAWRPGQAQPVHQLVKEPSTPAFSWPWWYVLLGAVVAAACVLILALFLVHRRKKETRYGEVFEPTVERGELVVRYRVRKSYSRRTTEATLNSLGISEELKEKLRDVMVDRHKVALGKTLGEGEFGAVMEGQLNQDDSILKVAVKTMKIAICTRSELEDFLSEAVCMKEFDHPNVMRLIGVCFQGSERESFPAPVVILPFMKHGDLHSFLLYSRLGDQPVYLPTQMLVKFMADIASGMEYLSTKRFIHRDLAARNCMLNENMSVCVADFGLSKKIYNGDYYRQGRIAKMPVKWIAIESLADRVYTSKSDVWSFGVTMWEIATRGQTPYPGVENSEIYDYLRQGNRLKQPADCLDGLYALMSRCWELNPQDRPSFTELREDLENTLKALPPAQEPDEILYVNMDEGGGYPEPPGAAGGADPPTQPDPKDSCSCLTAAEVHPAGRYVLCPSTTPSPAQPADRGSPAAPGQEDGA

IC50, < 1000 nM:
Nc1nc(Nc2ccc(N3CCC(N4CCCC4)CC3)c(F)c2)nn1-c1cc(-c2ccccc2)ccn1 [Compound 259, 1-(4-phenylpyridin-2-yl)-N^3-(3-fluoro-4-(4-(pyrrolidin-1-yl)piperidin-1-yl)phenyl)-1H-1,2,4-triazole-3,5-diamine]
Cc1csc2c(-n3nc(Nc4ccc(N5CCC(N6CC7CCC6C7)CC5)c(F)c4)nc3N)ncnc12 (stereo not drawn) [Compound 260, 1-(7-methylthieno[3,2-d]pyrimidin-4-yl)-N^3-(3-fluoro-4-(4-(2-azabicyclo[2.2.1]heptan-2-yl)piperidin-1-yl)phenyl)-1H-1,2,4-triazole-3,5-diamine]
Cc1csc2c(-n3nc(Nc4ccc(C5CCN(C6CC7CCC6C7)CC5)cc4)nc3N)ncnc12 (stereo not drawn) [Compound 261, 1-(7-methylthieno[3,2-d]pyrimidin-4-yl)-N^3-(4-(1-(bicyclo[2.2.1]heptan-2-yl)piperidin-4-yl)phenyl)-1H-1,2,4-triazole-3,5-diamine]
